From publication PMC6105845, “Nucleotide Prodrug Containing a Nonproteinogenic Amino Acid To Improve Oral Delivery of a Hepatitis C Virus Treatment” (Antimicrobial Agents and Chemotherapy, 2018)
In brackets after ≈: the same amount, converted by molar mass. Several values for one entry are separate records, joined by “and”; a condition that tells them apart may be missing. Equal entries are not always repeated. Where two headings read alike, the source gives them in different places.

What was measured:
[1] = Metabolic stability in intestinal S9 fraction, hamster; type: in vitro ADME
Description: (§1) Blood plasma and S9 stability was studied as described previously ([8]). In brief, the compounds were incubated at 2 μM in hamster, rat, dog, monkey, or human plasma samples for up to 4 h at 37°C. For S9 stability, the compounds were incubated at 2 μM in hamster, rat, dog, monkey, or human intestinal and hepatic S9 fractions for up to 90 min at 37°C in the presence of NADPH and uridine 5′-diphosphoglucuronic acid trisodium salt (UDPGA) (Sigma-Adrich). The samples were analyzed by liquid chromatography coupled to triple-quadrupole mass spectrometry (LC-MS/MS).
(§2) The data (analyte-to-internal standard peak area ratio) were plotted on a semilog scale and fitted using an exponential fit. The half-life (t1/2) was determined assuming first-order kinetics.

[2] = Plasma pharmacokinetics in pentagastrin-pretreated portal vein-cannulated dogs; type: in vivo, male beagle dogs; conditions: for bioavailability / AUC(0-t) / Cmax: male, beagle; for bioavailability / Fa (fraction absorbed): oral 5 mg/kg vs 0.5 mg/kg intravenous infusion; for bioavailability: read-out: F (oral bioavailability)
Description: Plasma and liver pharmacokinetic studies were completed as described previously ([8]). Briefly, intact Golden Syrian hamsters, Sprague-Dawley rats, and beagle dogs (intact and portal vein cannulated) were orally administered a single dose of GS2 or GS2(R+S) in solution formulations at between 5 and 50 mg/kg of body weight. Similarly, studies were completed by administering GS-6620 or its 1:1 diastereomeric mixture in solution or micronized suspension formulations at between 5 and 21.1 mg/kg. Animal doses were chosen to correspond to surface area-adjusted human doses targeted for clinical development (150 to 500 mg). In order to understand hepatic extraction (EH), fraction absorbed (Fa), and oral bioavailability (F), intravenous (i.v.) and oral (p.o.) studies were conducted with GS2 and GS-6620 in intact and portal vein-cannulated dogs. Intravenous dosing used solution formulations at 0.5 mg/kg of the respective prodrugs. Animals were housed and handled in accordance with the Guide for the Care and Use of Laboratory Animals ([23]). The protocols were reviewed and approved by the Institutional Animal Care and Use Committees (IACUC).
Plasma samples were prepared through protein precipitation extraction by adding acetonitrile to a final concentration of 70% containing internal standard (5-iodotubericidin). Samples were dried completely under a stream of nitrogen at 40°C and reconstituted with 0.2% formic acid in water to 3 times the original volume of plasma for LC-MS/MS analysis. Liver samples were prepared by sectioning into smaller pieces and collecting into preweighed 15-ml conical tubes kept on dry ice. Ice-cold extraction buffer (0.1% KOH and 67 mM EDTA in 70% methanol containing chloro-ATP as an internal standard) was added to ∼0.5 g of each liver sample. The mixtures were promptly homogenized using an Omni-Tip TH with disposable, hard tissue homogenizer probes (Omni International). Aliquots of the homogenate were filtered by using 0.2-μm 96-well polypropylene filter plates (Varian Captiva). The filtrates were evaporated to dryness and reconstituted with an equal volume of 1 mM ammonium phosphate buffer (pH 7) prior to LC-MS/MS analysis. Plasma and liver samples were analyzed on a Sciex API-4000 (Applied Biosystems, Foster City, CA) LC-MS/MS instrument. Analytes in plasma samples were separated on a 4-μm, 150- by 2-mm Synergi Max-RP column (Phenomenex, Torrance, CA) using a mobile phase containing 0.2% formic acid and a linear gradient from 2% to 100% acetonitrile at a flow rate of 250 μl/min over 7 min. Analytes in liver samples were separated using a 50- by 2-mm by 2.5-μm Luna C18(2) HST column (Phenomenex, Torrance, CA). A multistage linear gradient from 10% (mobile phase A) to 50% acetonitrile (mobile phase B) in a mobile phase containing 3 mM ammonium formate (pH 5.0) with 10 mM dimethylhexylamine at a flow rate of 0.15 ml/min was used to elute the analytes.
Noncompartmental pharmacokinetic parameters were calculated using WinNonlin 5.01 (Pharsight Corporation, Mountain View, CA). Equations for calculating hepatic extraction (EH; equation 2), fraction absorbed (Fa; equation 3), and oral bioavailability (F; equation 4) have been presented previously ([25]). (2) EH=AUCPO,portal vein−AUCPO,jugular vein/AUCPO,portal vein (3) Fa=F/1−EH (4) F=AUCPO,jugular vein÷DosePO/AUCIV÷DoseIV

Kinetic solubility = type: physicochemical; conditions: 37 °C, kinetic from dmso stock
Description: The samples were incubated at 37°C for 1 h, followed by centrifugation at 2,800 relative centrifugal force (RCF) for 30 min at room temperature. Thermodynamic solubility was determined with the crystalline-free base of GS-6620 or amorphous GS2 using the shaking flask method. The concentrations of the compounds in supernatants were determined by HPLC.

[3] = Metabolic stability in hepatic S9 fraction, monkey; type: in vitro ADME; conditions: monkey (cynomolgus); 2 μM
Description: as §1, §2

HCV GT2a replicon = experiment: HCV GT2a replicon, transiently transfected Huh-1C cells; type: cell-based, hepatitis C virus; conditions: for EC50: Hepatitis C virus, GT2A, 72 h
Description: (§3) GT1a, GT1b, and GT2a are authentic subgenomic replicons of the indicated strain. Creation of these HCV replicons was reported previously ([7]).
(§4) RNA was transcribed in vitro using a MEGAscript […] kit (Ambion, Austin, TX) and transfected into Huh-Lunet and −1C cells using published methods ([21], [22]).
(§5) The EC50s, defined as the concentration at which there was a measured 50% decrease in HCV replicon level, were determined in replicon assay as previously described ([24]). Briefly, replicon cells were seeded into 96-well plates. Compounds were serially diluted in DMSO at 200× final concentrations and then added to the assay plate. Luciferase expression was quantified after 3 days of incubation using a commercial luciferase assay (Promega, Madison, WI). Data were analyzed using GraphPad Prism 6.0 (La Jolla, CA).
(§6) X represents log of compound concentration and Y represents replicon replication as the percentage of DMSO control. EC50s were calculated as an average from at least three independent experiments.

HCV GT1a replicon = experiment: HCV GT1a replicon, transiently transfected Huh-1C cells; type: cell-based, hepatitis C virus; conditions: for EC50: Hepatitis C virus, GT1A, 72 h
Description: as §3, §4, §5, §6

HCV GT1b replicon = experiment: HCV GT1b replicon, transiently transfected Huh-1C cells; type: cell-based, hepatitis C virus; conditions: for EC50: Hepatitis C virus, GT1B, 72 h
Description: as §3, §4, §5, §6

[4] = dog, plasma (jugular vein), oral 5 mg/kg, GS2 in solution, GS-6620 in suspension of micronized material, read-out: AUC0–t jugular
[5] = dog, plasma (jugular vein), oral 5 mg/kg, GS2 in solution, GS-6620 in suspension of micronized material, read-out: Cmax jugular
[6] = dog, plasma (portal vein), oral 5 mg/kg, GS2 in solution, GS-6620 in suspension of micronized material, read-out: AUC0–t portal
[7] = dog, plasma (portal vein), oral 5 mg/kg, GS2 in solution, GS-6620 in suspension of micronized material, read-out: Cmax portal
[8] = dog, plasma, 0.5-mg/kg intravenous infusion (30 min), n = 3, read-out: AUC0–t following intravenous infusion
[9] = 0.1 N HCl, simulated gastric fluid, HCl (pH 1.0)

Row | SMILES | half-life at 2 μM [1] [min] | bioavailability ([2]; dog, plasma (jugular vein)) [%] | AUC(0-t) [2, 4] [µM·h] | Cmax [2, 5] [nM] | AUC(0-t) [2, 6] [µM·h] | Cmax [2, 7] [nM] | AUC(0-t) [2, 8] [µM·h] | EH (hepatic extraction) ([2]; oral 5 mg/kg) [%] | Fa (fraction absorbed) [2] | solubility kinetic at 1 h (Kinetic solubility; [9]) [µM] | solubility kinetic at 1 h (Kinetic solubility; aqueous buffer, PBS (pH 7.0)) [µM] | Metabolic stability in hepatic S9 fraction, predicted hepatic extraction [3] [%] | EC50 (HCV GT2a replicon) [nM] | EC50 (HCV GT1a replicon) [nM] | EC50 (HCV GT1b replicon) [nM] | also measured
1 | CC(C)OC(=O)C(C)(C)N[P@](=O)(OC[C@H]1O[C@@](C#N)(c2ccc3c(N)ncnn23)[C@](C)(O)[C@@H]1O)Oc1ccccc1 [GS2] | 67 | 13 | 0.44 ± 0.09 | 430 ± 90 | 1.77 ± 0.26 | 1610 ± 350 | 0.34 | 75 | 51.6% and 52% | > 100 | > 100 | 91 | 61 ± 8 | 140 ± 60 | 110 ± 20 | Fa in dog higher than corresponding L-alanine-containing prodrug ([2]; dog, in vivo): more than 5 fold; maximal portal concentration lower than GS-6620 ([2]; oral 5 mg/kg): approximately 2 fold; Fold (GS2/GS-6620) (HCV GT2a replicon; EC50 ratio, GT2a, Huh-1C): 2.3; Fold (GS2/GS-6620) (HCV GT1a replicon; EC50 ratio, GT1a, Huh-1C): 3.5; Fold (GS2/GS-6620) (HCV GT1b replicon; EC50 ratio, GT1b, Huh-1C): 3.1
2 | CC(C)OC(=O)[C@H](C)N[P@](=O)(OC[C@H]1O[C@@](C#N)(c2ccc3c(N)ncnn23)[C@](C)(O)[C@@H]1OC(=O)C(C)C)Oc1ccccc1 [GS-6620, reference compound] | < 2 | 15 | 0.33 ± 0.28 | 620 ± 430 | 1.68 ± 0.8 | 3650 ± 860 | 0.2 | 80 | 79% | 87 (≈ 56.1 µg/mL) | 46 (≈ 29.7 µg/mL) | 95 | 27 ± 10 | 41 ± 19 | 35 ± 15 | time by which plasma concentration decreased to undetectable ([2]; oral 5 mg/kg, postdose): ≤ 2 h
